Assay results published in ChEMBL document CHEMBL4118148, “Design, synthesis and cardiovascular evaluation of some aminoisopropanoloxy derivatives of xanthone” (Bioorg Med Chem, 2018).
The source made the active and inactive calls. The calls are words filed in the database; no cut-off is given here.

Key:
[1] = target: Beta-1 adrenergic receptor (Rattus norvegicus) (UniProt P18090); experiment: Displacement of [3H]-CGP-12177 from adrenergic beta1 receptor in Wistar rat cortex at 10^-5 M incubated for 60 mins by microbeta liquid scintillation counting analysis
Beta-1 adrenergic receptor (Rattus norvegicus), sequence (P18090 whole entry, looked up): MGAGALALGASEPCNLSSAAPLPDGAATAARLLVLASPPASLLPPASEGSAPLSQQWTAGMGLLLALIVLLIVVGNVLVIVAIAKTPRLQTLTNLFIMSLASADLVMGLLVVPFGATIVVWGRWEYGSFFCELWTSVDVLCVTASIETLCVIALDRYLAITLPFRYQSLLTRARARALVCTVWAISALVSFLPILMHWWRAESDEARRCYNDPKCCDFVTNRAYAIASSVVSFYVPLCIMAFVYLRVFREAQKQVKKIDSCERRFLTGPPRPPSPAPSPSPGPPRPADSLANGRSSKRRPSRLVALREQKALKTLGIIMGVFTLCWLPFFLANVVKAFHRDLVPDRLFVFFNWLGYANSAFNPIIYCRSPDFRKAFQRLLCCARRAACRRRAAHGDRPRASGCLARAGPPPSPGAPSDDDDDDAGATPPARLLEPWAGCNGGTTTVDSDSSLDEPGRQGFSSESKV

[2] = system: Rattus norvegicus; experiment: Hypotensive activity in normotensive Wistar rat assessed as reduction in diastolic blood pressure at 1 mg/kg, iv measured over 40th min relative to control; assay type: functional; set-up: scale not given: the % may be the effect or the level left
[3] = system: Rattus norvegicus; experiment: Hypotensive activity in normotensive Wistar rat assessed as reduction in systolic blood pressure at 0.5 mg/kg, iv measured over 30 mins relative to control; assay type: functional; set-up: scale not given: the % may be the effect or the level left
[4] = system: Rattus norvegicus; experiment: Hypotensive activity in normotensive Wistar rat assessed as systolic blood pressure at 0.5 mg/kg, iv measured after 5 mins (reference value: 147.7 +/- 5.9 mmHg); assay type: functional
[5] = system: Rattus norvegicus; experiment: Hypotensive activity in normotensive Wistar rat assessed as systolic blood pressure at 0.5 mg/kg, iv measured after 10 mins (reference value: 147.7 +/- 5.9 mmHg); assay type: functional
[6] = system: Rattus norvegicus; experiment: Hypotensive activity in normotensive Wistar rat assessed as systolic blood pressure at 0.5 mg/kg, iv measured after 10 mins (reference value: 116 +/- 4.6 mmHg); assay type: functional
[7] = system: Rattus norvegicus; experiment: Hypotensive activity in normotensive Wistar rat assessed as systolic blood pressure at 0.5 mg/kg, iv measured after 20 mins (reference value: 147.7 +/- 5.9 mmHg); assay type: functional
[8] = system: Rattus norvegicus; experiment: Hypotensive activity in normotensive Wistar rat assessed as systolic blood pressure at 0.5 mg/kg, iv measured after 30 mins (reference value: 147.7 +/- 5.9 mmHg); assay type: functional
[9] = system: Rattus norvegicus; experiment: Hypotensive activity in normotensive Wistar rat assessed as systolic blood pressure at 0.5 mg/kg, iv measured after 30 mins (reference value: 116 +/- 4.6 mmHg); assay type: functional
[10] = system: Rattus norvegicus; experiment: Hypotensive activity in normotensive Wistar rat assessed as systolic blood pressure at 0.5 mg/kg, iv measured after 60 mins (reference value: 147.7 +/- 5.9 mmHg); assay type: functional
[11] = system: Rattus norvegicus; experiment: Hypotensive activity in normotensive Wistar rat assessed as systolic blood pressure at 0.5 mg/kg, iv measured after 60 mins (reference value: 116 +/- 4.6 mmHg); assay type: functional
[12] = (§1) Inhibition of voltage gated calcium channel in Wistar rat aorta assessed as relaxation of KCl-precontracted aortic rings by measuring reduction in calcium entry in presence of phentolamine
[13] = species: Rattus norvegicus; experiment: as §1
[14] = system: Rattus norvegicus; experiment: Hypotensive activity in normotensive Wistar rat assessed as systolic blood pressure at 2.5 mg/kg, iv measured after 5 mins (reference value: 148.5 +/- 2.6 mmHg); assay type: functional
[15] = system: Rattus norvegicus; experiment: Hypotensive activity in normotensive Wistar rat assessed as diastolic blood pressure at 2.5 mg/kg, iv measured after 5 mins (reference value: 116.2 +/- 1.2 mmHg); assay type: functional
[16] = system: Rattus norvegicus; experiment: Hypotensive activity in normotensive Wistar rat assessed as systolic blood pressure at 2.5 mg/kg, iv measured after 10 mins (reference value: 148.5 +/- 2.6 mmHg); assay type: functional
[17] = system: Rattus norvegicus; experiment: Hypotensive activity in normotensive Wistar rat assessed as systolic blood pressure at 2.5 mg/kg, iv measured after 20 mins (reference value: 148.5 +/- 2.6 mmHg); assay type: functional
[18] = system: Rattus norvegicus; experiment: Hypotensive activity in normotensive Wistar rat assessed as diastolic blood pressure at 2.5 mg/kg, iv measured after 20 mins (reference value: 116.2 +/- 1.2 mmHg); assay type: functional
[19] = system: Rattus norvegicus; experiment: Hypotensive activity in normotensive Wistar rat assessed as systolic blood pressure at 2.5 mg/kg, iv measured after 60 mins (reference value: 148.5 +/- 2.6 mmHg); assay type: functional
[20] = system: Rattus norvegicus; experiment: Hypotensive activity in normotensive Wistar rat assessed as reduction in systolic blood pressure at 2.5 mg/kg, iv measured after 5 to 10 mins relative to control; assay type: functional; set-up: scale not given: the % may be the effect or the level left
[21] = system: Rattus norvegicus; experiment: Hypotensive activity in normotensive Wistar rat assessed as reduction in diastolic blood pressure at 2.5 mg/kg, iv measured after 5 to 10 mins relative to control; assay type: functional; set-up: scale not given: the % may be the effect or the level left
[22] = system: Rattus norvegicus; experiment: In vivo inhibition of beta adrenoceptor in Wistar rat assessed as reduction in isoprenaline-induced tachycardia at 1 mg/kg, iv administered as single dose 10 mins prior to isoprenaline injection; assay type: functional, organism-based
[23] = system: Rattus norvegicus; experiment: Hypotensive activity in normotensive Wistar rat assessed as reduction in systolic blood pressure at 1 mg/kg, iv measured after 30 to 60 mins relative to control; assay type: functional; set-up: scale not given: the % may be the effect or the level left
[24] = system: Rattus norvegicus; experiment: Hypotensive activity in normotensive Wistar rat assessed as reduction in diastolic blood pressure at 1 mg/kg, iv measured after 30 to 60 mins relative to control; assay type: functional; set-up: scale not given: the % may be the effect or the level left
[25] = system: Rattus norvegicus; experiment: Cardiotoxicity in Wistar rat assessed as effect on heart rate at 1 mg/kg, iv measured after 1 min (reference value: 320.6 +/- 8.1 bpm); assay type: toxicity, organism-based; settings: in vivo
[26] = system: Rattus norvegicus; experiment: Cardiotoxicity in Wistar rat assessed as effect on PQ interval time at 1 mg/kg, iv measured after 1 min (reference value: 56.8 +/- 1.8 ms); assay type: toxicity, organism-based; settings: in vivo
[27] = system: Rattus norvegicus; experiment: Cardiotoxicity in Wistar rat assessed as effect on QRS interval time at 1 mg/kg, iv measured after 1 min (reference value: 19.4 +/- 0.9 ms); assay type: toxicity, organism-based; settings: in vivo
[28] = system: Rattus norvegicus; experiment: Cardiotoxicity in Wistar rat assessed as effect on QT interval time at 1 mg/kg, iv measured after 1 min (reference value: 59.2 +/- 0.5 ms); assay type: toxicity, organism-based; settings: in vivo
[29] = system: Rattus norvegicus; experiment: Cardiotoxicity in Wistar rat assessed as effect on QTC interval time at 1 mg/kg, iv measured after 1 min (reference value: 137.7 +/- 2 ms); assay type: toxicity, organism-based; settings: in vivo
[30] = system: Rattus norvegicus; experiment: Cardiotoxicity in Wistar rat assessed as effect on heart rate at 1 mg/kg, iv measured after 5 mins (reference value: 320.6 +/- 8.1 bpm); assay type: toxicity, organism-based; settings: in vivo
[31] = system: Rattus norvegicus; experiment: Cardiotoxicity in Wistar rat assessed as effect on PQ interval time at 1 mg/kg, iv measured after 5 mins (reference value: 56.8 +/- 1.8 ms); assay type: toxicity, organism-based; settings: in vivo
[32] = system: Rattus norvegicus; experiment: Cardiotoxicity in Wistar rat assessed as effect on QRS interval time at 1 mg/kg, iv measured after 5 mins (reference value: 19.4 +/- 0.9 ms); assay type: toxicity, organism-based; settings: in vivo
[33] = system: Rattus norvegicus; experiment: Cardiotoxicity in Wistar rat assessed as effect on QT interval time at 1 mg/kg, iv measured after 5 mins (reference value: 59.2 +/- 0.5 ms); assay type: toxicity, organism-based; settings: in vivo
[34] = system: Rattus norvegicus; experiment: Cardiotoxicity in Wistar rat assessed as effect on QTC interval time at 1 mg/kg, iv measured after 5 mins (reference value: 137.7 +/- 2 ms); assay type: toxicity, organism-based; settings: in vivo
[35] = system: Rattus norvegicus; experiment: Cardiotoxicity in Wistar rat assessed as effect on PQ interval time at 1 mg/kg, iv measured after 15 mins (reference value: 56.8 +/- 1.8 ms); assay type: toxicity, organism-based; settings: in vivo, 0.25 h
[36] = system: Rattus norvegicus; experiment: Cardiotoxicity in Wistar rat assessed as effect on QT interval time at 1 mg/kg, iv measured after 15 mins (reference value: 59.2 +/- 0.5 ms); assay type: toxicity, organism-based; settings: in vivo, 0.25 h
[37] = system: Rattus norvegicus; experiment: Hypotensive activity in normotensive Wistar rat assessed as reduction in diastolic blood pressure at 1 mg/kg, iv measured over 10 mins relative to control; assay type: functional; set-up: scale not given: the % may be the effect or the level left

In the case of `Cl.O=c1c2ccccc2oc2cc(OCC(O)CN3CCN(c4ccccn4)CC3)ccc12` (racemic), the Activity [1] is reported as “inactive” and the Activity [2] is reported as 8 - 10%.

With `Cl.O=c1c2ccccc2oc2c(OCC(O)CN3CCN(c4ccccn4)CC3)cccc12` (racemic) the Activity [3] was 7 - 11%, the Activity [4] was 146.7 mmHg and the Activity [5] was 144 mmHg. The Activity [6] was 114.3 mmHg, the Activity [7] was 143 mmHg and the Activity [8] was 137.7 mmHg. For the same compound, the Activity [9] was 110.3 mmHg, the Activity [10] was 132 mmHg and the Activity [11] was 105.7 mmHg.

With `COc1ccc(CCNCC(O)COc2cccc3c(=O)c4ccccc4oc23)cc1OC.Cl` (racemic) the IC50 [12] was 10.3 µM, the inhibition [13] was “Dose-dependent effect” and the inhibition ([13]; concentration not given here) was 95%. The Activity [14] was 143.7 mmHg, the Activity [15] was 107 mmHg and the Activity [16] was 135 mmHg. For the same compound, the Activity [17] was 132 mmHg, the Activity [18] was 99.7 mmHg and the Activity [19] was 133 mmHg. For the same compound, the Activity [20] was 9 - 12% and the Activity [21] was 8 - 16%.

With `CC(C)(C)NCC(O)COc1cccc2c(=O)c3ccccc3oc12.Cl` (racemic) the inhibition [22] was “Active”, the Activity [23] was 10% and the Activity [24] was 10 - 13%. For the same compound, the Activity [25] was 307.2 bpm, the Time [26] was 57.6 ms and the Time [27] was 19.6 ms. It also gave a Time [28] of 59.2 ms, a Time [29] of 134.5 ms and an Activity [30] of 295.6 bpm. The Time [31] was 58 ms, the Time [32] was 19 ms and the Time [33] was 59.2 ms. For the same compound, the Time [34] was 132.2 ms, the Time [35] was 58 ms and the Time [36] was 59.6 ms.

With `COc1ccccc1CCNCC(O)COc1cccc2c(=O)c3ccccc3oc12.Cl` (racemic) the Activity [37] was 7%.
